# Measured values from US20220175738A1, “Tip60 Inhibitors and Methods of Use for Cardiovascular Disease” (The Medical College of Wisconsin, Inc., priority 2019, published 2022).
# Test system: wild-type rat neonatal CMs
# Assay: Neonatal CM cell culture model: proliferation and apoptosis (planned)
# Assay type: cell-based
# Conditions: low concentrations 0.1-3 μM, 24 hours; expected
# Excerpt: The cells will then be assessed for cell proliferation by direct cell counting and [3H]-thymidine incorporation as well as by immunostaining for Ki67, BrdU and pH3. Apoptosis will also be evaluated, by TUNEL labeling and by staining of caspase-3. All results will be confirmed using a minimum of three independent determinations, and statistical evaluation will be performed using ANOVA or a Student's t-test, as appropriate.
smiles,measurement,value
c1cc(SSc2ccns2)sn1 [NU9056],"CM proliferation (cell counting, [3H]-thymidine, Ki67, BrdU, pH3)",promote CM proliferation
